Among the data in patent US4311685A, “Assay method and kit” (Burroughs Wellcome Co., priority 1979, dated 1982) are fraction unbound values, retold here.

The data set in a line: in vitro. The settings on record: human, plasma.

Broadly, the fraction unbound is free concentration divided by total concentration. The low end stands for little free substance, the high end for much free substance. `CC(C)NCC(O)COc1cccc2ccccc12` (racemic) [propranolol] yielded a fraction unbound at 12 h, 0.07 µM of 0.117.
